Data taken from patent US6338963B1, “Use of carbon monoxide dependent guanylyl cyclase modifiers to stimulate neuritogenesis” (NeoTherapeutics, Inc., priority 1994, dated 2002).

How the values were obtained:
NGF = NGF release from rat cultured astrocytes (ELISA); assay type: cell-based; conditions: for release of NGF from astrocytes: exposure for 24 hours
Experimental: The dose response for AIT-082 and guanosine on nerve growth factor and S100β protein release from rat culture astrocytes is shown in FIG. 30. NGF was assayed by a double-site ELISA, using a monoclonal anti-NGF antibody, coupled or not to β-galactosidase according to the method of I. D. Laviada et al., “Phosphatidylcholine-Phospholipase C Mediates the Induction of Nerve Growth Factor in Cultured Glial Cells,” FEBS Lett. 364: 301-304 (1995).
(§1) The NGF and S100β protein were measured by removing the cultured medium for the ELISA assays at each indicated time point.
NGF and TGFβ2 levels were assayed in the culture medium of the astrocytes by specific ELISA assays using kits from Roche (Germany) and Promega (USA) respectively. NGF basal levels were 56.3±3.2 pg/ml. TGFβ2 levels were 9.1±0.06 pg/ml.
In FIG. 61, the dose-response curves of NGF and TGFβ2 release from rat cultured astrocytes as the result of exposure to AIT-082 are shown.

S100β protein = S100β protein release from rat cultured astrocytes (ELISA); assay type: cell-based; conditions: for release of S100β protein from astrocytes: exposure for 24 hours
Experimental: The S100β protein was measured by using an ELISA as described in A. Aurell et al., “The S-100 Protein in Cerebrospinal Fluid: A Simple ELISA Method,” J.Neurol. Sci. 89: 157-164 (1989).
as §1

NGF mRNA = assay: Northern/slot blot of neurotrophin mRNA from astrocytes: NGF; assay type: cell-based, NIH Swiss mice; set-up: key to NGF mRNA: The conditions which produced a detectable amount of each of the neurotrophin mRNAs are indicated by a “+”; a “++” indicating that at least twice the detectable amount was present; Those blots which were negative are indicated by a “−”; conditions: for NGF mRNA: 24 hours
Experimental: Induction of neurotrophin mRNA was determined by northern blot analysis of astrocytes cultured with AIT-082, NGF, or both. The cells were harvested and RNA extracted at 24 hours after treatment.
More particularly, astrocytes from the cerebral cortex of NIH Swiss mice (Harlan) were isolated. Briefly, newborn pups (0-24 hours) were decapitated. Their brains were removed under aseptic conditions and were placed in modified Dulbecco's medium (DMEM) containing 20% heat-inactivated horse serum (Hyclone) (“complete medium”). The neopallium was then dissected from each cerebral hemisphere and minced into 1 mm cubes.
The astrocytes were then isolated by mechanical dissociation. The cubes were vortexed at maximum speed for one minute. The cell suspension was then passed first through 75 mm Nitex then through 10 mm Nitex. The resulting cell suspension was diluted in complete medium to a final concentration of one brain per 10 ml of complete medium. Ten milliliters of the diluted cell suspension was added to each 100 mm Falcon tissue culture plate (Fisher). After 3 days the medium was replaced with 10 ml fresh complete medium and subsequently was replaced twice weekly with DMEM containing 10% heat inactivated horse serum (“growth medium”). After two weeks in culture the astrocytes formed a confluent monolayer.
For RNA extraction, astrocytes were trypsinized. The astrocytes were then replated onto 100 mm PORN coated plates at a cell density of 10^6 cells per plate (10 ml growth medium). After 2 hrs PBS, guanosine (Guo), or GTP at 10 mM were added to the appropriate plates. Total RNA was harvested from 1.5×10^7 cells for each treatment, 4 and 24 hrs after treatment using TRIzol reagent and supplier protocol (GIBCO BRL/Life Technologies, Inc.). For slot blots, total RNA was bound to Hybond-N filters (Amersham/United States Biochemicals) as described in Transfer and Immobilization of Nucleic Acids and Proteins to S & S Solid Supports (S and S Protocols: Schleicher & Schuell, New Hampshire, USA). Northern blots were also performed using […] total RNA from each sample. These were electrophoresed in 1% agarose gels containing formaldehyde and blotted onto Hybond-N filters according to S and S protocols.
The blots were probed with ^32P-labeled cDNA (NGF, NT-3 and BDNF probes) or oligonucleotide probe (FGF-2) by hybridization in Piperazine-N,N′-bis-(2-ethanesulfonic acid) (PIPES) buffer (50 mM PIPES, pH 6.8; 50 mM NaH2PO4; 0.1 M NaCl; 5% SDS and 1 mM EDTA) overnight at 50° C. […] Various concentrations ([…] of total RNA), as determined by spectrophotometry, of each sample were blotted and probed so that quantification could be done after insuring a linear film response. Quantification was performed using MCID Image Analysis (St. Catherine's, Ontario, Canada). […]

| Compound | time after exposure at which release of NGF was enhanced (NGF; AIT-082 100 μM) [h] | time of maximum release of NGF (NGF; AIT-082 100 μM) [h] | release of NGF from astrocytes (NGF) | increase of NGF production as compared to a control (NGF; rat cultured astrocytes) | time of peak release of S100β protein (S100β protein; AIT-082 100 μM) | release of S100β protein from astrocytes (S100β protein) | NGF mRNA (NGF mRNA; AIT-082 100 mM) | NGF mRNA (NGF mRNA; AIT-082 + NGF (40 ng/ml)) | NGF mRNA in astrocytes (NGF mRNA; guanosine, 4 hours after addition) |
| --- | --- | --- | --- | --- | --- | --- | --- | --- | --- |
| O=C(CCn1cnc2c(=O)[nH]cnc21)Nc1ccc(C(=O)O)cc1 [AIT-082, N-4-carboxyphenyl-3-(6-oxohydropurin-9-yl)propanamide] | 12 | 24 | dose-dependent increase | about 2.5 fold | peaked within three hours | dose-dependent increase | ++ | + |  |
| Nc1nc2c(ncn2[C@@H]2O[C@H](CO)[C@@H](O)[C@H]2O)c(=O)[nH]1 [guanosine] |  |  | dose-dependent increase |  |  | dose-dependent increase |  |  | increased |
